Experimental data reported in paper PMC9308172 (Journal of medicinal chemistry, 2017).

Target: M2TMS31N (Influenza A virus, UniProt P0DOF5, S31N)
Assay type: binding, influenza A (A/Udorn/307/72, S31N mutant)
Conditions: for binding to M2TMS31N according to ITC (in words): pH 8

Row | Structure (SMILES) | binding to M2TMS31N according to ITC (in words) | ΔG [kcal/mol]
1 | CCCC1(N)C2CC3CC(C2)CC1C3 (centres unmarked) [Compound 5] | bind weakly | 
2 | NC1(C23CC4CC(CC(C4)C2)C3)CCCCC1 [Compound 10, 1-(1-Adamantyl)cyclohexanamine] |  | -7.029 ± 0.308
3 | NC1(C23CC4CC(CC(C4)C2)C3)CCCC1 [Compound 9] |  | -6.745 ± 0.229
4 | C1CNC2(C1)C1CC3CC(C1)CC2C3 (centres unmarked) [Compound 6] | bind weakly | -6.68 ± 0.296
